The text below walks through data of patent publication US20090215707A1, “COMPOUND HAVING CYCLIC STRUCTURE AND USE THEREOF” (RIKEN, priority 2005, published 2009).

Each structure is given as a SMILES string.

The assay concerns spleen cells. Nature of the assay: Cytokine (IFN-γ, IL-4) production in mouse spleen cell culture, sandwich ELISA assay. The following applies: mouse spleen cells 2×10^5 cells/well, reagent at 2, 20 and 200 ng/mL, supernatant 4 days later, values only in FIG. 1-6. It counts as cell-based. On the procedure:
The spleen cells removed from the spleen of mouse were individually prepared to 2×10^5 cells/well (96-well plate) using RPMI1640 culture medium (manufactured by Sigma Corporation) containing 10% fetal calf serum (FCS). A reagent was added to the culture medium at each of the concentrations of 2 ng/mL, 20 ng/mL and 200 ng/mL. The cytokine amount in the culture supernatant 4 days later was measured by sandwich ELISA assay. As the test substances, compounds 33 and 34 obtained in Examples 14 and 15 were used, and α-galactosylceramide represented by the following formula (a) (α-GC, abbreviated as compound a in the Figure) was used as a control substance. In addition, DMSO was used as a control.
The cytokine amount was measured by sandwich ELISA assay in the same manner as in Experimental Example 1 except that compound 23 obtained in Example 6 was used as a test substance. In addition, the time course changes in the amount of IFN-γ production are shown in FIG. 5, and the time course changes in the amount of IL-4 production are shown in FIG. 6.
`CCCCCCCCCCCCCCCCCCCCCCCCCC(=O)N1[C@@H](CCCCCCCCCCCCCC)[C@@H](O)[C@@H]1COC1OC(CO)C(O)C(O)C1O` (stereo partly shown) [compound 23]: the “cytokine production pattern (IFN-γ and IL-4 production amount in culture supernatant)” value (shortened to “cytokine production pattern”) was “ability to preferentially induce IL-4 production”.

Consider `CCCCCCCCCCCCCCCCCCCCCCCCCC(=O)N1[C@@H](CCCCCCCCCCCCC)C[C@@H](O)[C@@H]1COC1OC(CO)C(O)C(O)C1O` (stereo partly shown) [compound 33], for which the “cytokine production pattern” value is “IL-4 preferential cytokine production pattern”.

On to `CCCCCCCCCCCCCCCCCCCCCCCCCC(=O)N1[C@@H](CCCCCCCCCCCCC)C[C@@H](O)[C@@H]1COC1OC(CO)C(O)C(O)C1O` (stereo partly shown) [compound 34], for which the “cytokine production pattern” value is reported as “IL-4 preferential cytokine production pattern”.

For `CCCCCCCCCCCCCCCCCCCCCCCCCC(=O)N[C@@H](COC1OC(CO)C(O)C(O)C1O)[C@H](O)[C@H](O)CCCCCCCCCCCCCC` (stereo partly drawn) [α-galactosylceramide, reference compound], the “cytokine production pattern” value is “produced both IFN-γ and IL-4 in large amounts”.
